Patent US11185514B2, “Aqueous solution comprising a polyphenol” (OPTERION Health AG, priority 2015, dated 2021)
Converted amounts (≈) assume the structure as drawn.

Columns and labels:
[1] = Solubility in commercial peritoneal dialysis solutions (Medium B, E, F), 5 minutes to 12 hours stirring (Example 2); type: physicochemical; conditions: for P in Medium B found: Medium B (106.5 g/L anhydrous glucose, pH 3.5); for P in Medium B found / P in Medium E found / P in Medium F found: room temperature; for P in Medium E found: Medium E (75 g/L Icodextrin, pH 3); for P in Medium F found: Medium F (30 g/L anhydrous glucose, pH 3)
Procedure: (§1) Solubility studies were carried out commercially available peritoneal dialysis solutions Fresenius Safestay® 1.5% glucose, Baxter Physioneal® 3.86% glucose and Baxter Extraneal® (7.5% icodextrin), precisely in acidic glucose solutions, such as applied in two compartiment peritoneal dialysis applications Stay Safe® and Physioneal®, as well as in Extraneal® Solution that had previously been acidified to pH3. Medium B (117.14 g/L glucose monohydrate (equivalent to 106.5 g/L anhydrous glucose), 0.507 g/L Calcium chloride dihydrate, 0.140 g/L Magnesium chloride hexahydrate, measured pH 3.5), Medium E (75 g/L Icodextrin, 5.35 g/L Sodium Chloride, 4.48 g/L Sodium Lactate, 257 mg/L Calcium Chloride USP, 50.8 mg/L Magnesium Chloride USP, adjusted to pH 3 in our lab), and Medium F (30 g/L anhydrous glucose, 11.279 g/L Sodium chloride, 0.3675 g/L Calcium chloride dihydrate, 0.2033 g/L Magnesium chloride hexahydrate, measured pH 3).
Solubility was measured after 5 minutes to 12 hours stirring at room temperature, in presence of excess solute, followed by filtering.
Solubility was measured after one hour or 12 hours stirring at room temperature, in presence of excess solute, followed by filtering.

[2] = Solubility after one hour stirring at RT as a function of glucose or icodextrin concentration in salt solution at pH 3 or pH 7 (Example 1); type: physicochemical; conditions: 0% glucose or icodextrin
Procedure: Concentrations of stilbenoid in the present invention are measured after 1 hour stirring at room temperature, which is preferably 20-23° C., more preferably 22°. So, stilbenoid concentrations correspond to measured solubility after 1 hour stirring at room temperature. Concentration is measured in aqueous solution, comprising the stilbenoid and the at least one saccharide. If not specifically indicated, or if not specifically indicated otherwise, the time of stirring is one hour. In some cases, other stirring times are indicated, such as 12 hours. […] With increasing concentrations of saccharides, less variations were observed. This is highly beneficial for pharmacological formulations. For analysis R and P and their impurities were separated by a C-18 column with a gradient system and UV-detection at 306 nm. Solubility and stability of Resveratrol and […] after one hour stirring at RT, as a function of glucose or icodextrin concentration in a solution, containing 5.4 g/L NaCl, 4.5 g/L NaLactate, 0.275 g/L CaCl2, and 0.051 g/L MgCl2, buffered at pH 3 or pH 7. Solubility was measured after one hour stirring at room temperature, in presence of excess solute, followed by filtering.

[3] = Stability after one hour stirring at RT as a function of glucose or icodextrin concentration in salt solution at pH 3 or pH 7 (Example 1); type: physicochemical; conditions: pH of 3 to 3.5
Procedure: For analysis R and P and their impurities were separated by a C-18 column with a gradient system and UV-detection at 306 nm. Solubility and stability of Resveratrol and […] after one hour stirring at RT, as a function of glucose or icodextrin concentration in a solution, containing 5.4 g/L NaCl, 4.5 g/L NaLactate, 0.275 g/L CaCl2, and 0.051 g/L MgCl2, buffered at pH 3 or pH 7. Solubility was measured after one hour stirring at room temperature, in presence of excess solute, followed by filtering.

[4] = cited from earlier work
[5] = Solubility after one hour stirring at RT as a function of saccharide concentration in H2O (Examples 5-9); type: physicochemical; conditions: 24% N-acetylglucosamin in H2O, 1 hour stirring RT
Procedure: (§2) Solubility measurements after 1 hour stirring at RT generated some variability in-between measurement series, which might be due to low temperature variations, back-ground measurements and experimental imprecisions. […] The here calculated factors of increase of solubility are therefore to be considered as conservative.
Solubility of Resveratrol after one hour stirring at RT, as a function of the concentration of Maltose, Maltotriose, Isomaltotriose, and Maltotetraose in H2O. Solubility was measured after one hour stirring at room temperature, in presence of excess solute, followed by filtering. […] Concentration of Maltose and maltotriose of 7.5% increased solubility of the stilbenoid resveratrol by a factor higher than 6 and 3 respectively.
Solubility of Resveratrol after one hour stirring at RT, as a function of the concentration of Maltodextrin DE 16-19 (DE═dextrose equivalents), Maltodextrin DE 4-7 or Icodextrin in H2O. Solubility was measured after one hour stirring at room temperature, in presence of excess solute, followed by filtering.
Solubility of Resveratrol after one hour stirring at RT, as a function of the concentration of Dextran 2.5-4 kD, Dextran 10 kD, Glycogen 100 kD, and Pullulan 100-200 kD, in H2O. Solubility was measured after one hour stirring at room temperature, in presence of excess solute, followed by filtering. […]

[6] = Stability of Resveratrol in commercial dialysis solutions during autoclavation (Example 4); type: physicochemical
Procedure: For analysis R and P and their impurities were separated by a C-18 column with a gradient system and UV-detection at 306 nm.
as §1
Stability of Resveratrol in commercial dialysis solutions during autoclavation. Experiment was carried out in previous defined media B, E and F. 25 mg of resveratrol were sonicated in each medium and 0.45 μm filtered to give clear solutions. Obtained solutions were autoclaved for 30 min at 121° C.

[7] = Solubility of resveratrol in water / aqueous solution after stirring at room temperature (general statements); type: physicochemical
Procedure: Concentrations of stilbenoid in the present invention are measured after 1 hour stirring at room temperature, which is preferably 20-23° C., more preferably 22°. So, stilbenoid concentrations correspond to measured solubility after 1 hour stirring at room temperature. Concentration is measured in aqueous solution, comprising the stilbenoid and the at least one saccharide. If not specifically indicated, or if not specifically indicated otherwise, the time of stirring is one hour. In some cases, other stirring times are indicated, such as 12 hours. […] With increasing concentrations of saccharides, less variations were observed. This is highly beneficial for pharmacological formulations.
as §2

Row | P in Medium B found ([1]; stirring time 60 min) [mg/L] | P in Medium B found ([1]; stirring time 12 h) [mg/L] | P in Medium E found ([1]; stirring time 60 min) [mg/L] | P in Medium E found ([1]; stirring time 12 h) [mg/L] | P in Medium F found ([1]; stirring time 60 min) [mg/L] | P in Medium F found ([1]; stirring time 12 h) [mg/L] | stability of solubilized piceid over stirring time ([1]; commercial dialysis solutions, between 1 and 12 hours stirring) | effect of pH3 versus pH7 on solubility [2] | stabilization by pH [3] | solubility relative to referred absolute solubility (approximately 30 mg/L) ([1]; 7.5% Icodextrin (Medium E), 12 hours stirring) | increase of concentration [5] [times] | stability on heat sterilization ([6]; pH 3 adjusted Extraneal solution, heat sterilization) | stability during standard heat-sterilization ([6]; saccharide containing dialysis solutions at pH3, specifically in presence of 7.5% Icodextrin) | solubility at 1 h ([7]; 22 °C, thermodynamic from solid, after 1 hour stirring, distilled water, variation between measurements) [µg/mL] | concentration of resveratrol after 12 hours ([7]; 12 hours stirring) | SMILES | referred absolute solubility of Resveratrol in aqueous solution [4]
1 | 485.6 | 342.9 | 1585.5 | 1370.3 | 493.8 | 461.4 | stable between 1 and 12 hours | slightly increases solubility | significantly stabilize | – | – | – | – | – | – | OC[C@H]1O[C@@H](Oc2cc(O)cc(/C=C/c3ccc(O)cc3)c2)[C@H](O)[C@@H](O)[C@@H]1O [Piceid, resveratrol-3-O-β-mono-D-glucoside] | –
2 | – | – | – | – | – | – | – | slightly increases solubility | significantly stabilize | about 4 times | 12 | without degradation | remarkably high | 1 to 6.5 (≈ 4.38 to 28.5 µM) | above 24 mg/L | Oc1ccc(/C=C/c2cc(O)cc(O)c2)cc1 [Resveratrol, trans-3,5,4′-trihydroxystilbene] | approximately 30 mg/L
